Data from patent US20060258729A1, “Antibacterial pyrazole carboxylic acid hydrazides” (priority 2002, published 2006).
≈ marks a conversion by molar mass, not a printed value. Entries after “also recorded” stand apart in the source; their conditions may differ.

Key:
[1] = target: T1, B. subtilis pol IIIC (Bacillus subtilis, UniProt P13267); assay: DNA polymerase assay, B. subtilis pol IIIC; type: biochemical; conditions: for inhibition at 80 µg/mL: read-out: Percent Enzymatic Inhibition B. subtilis pol IIIC
T1 construct: made in house
T1 sequence (P13267 whole entry): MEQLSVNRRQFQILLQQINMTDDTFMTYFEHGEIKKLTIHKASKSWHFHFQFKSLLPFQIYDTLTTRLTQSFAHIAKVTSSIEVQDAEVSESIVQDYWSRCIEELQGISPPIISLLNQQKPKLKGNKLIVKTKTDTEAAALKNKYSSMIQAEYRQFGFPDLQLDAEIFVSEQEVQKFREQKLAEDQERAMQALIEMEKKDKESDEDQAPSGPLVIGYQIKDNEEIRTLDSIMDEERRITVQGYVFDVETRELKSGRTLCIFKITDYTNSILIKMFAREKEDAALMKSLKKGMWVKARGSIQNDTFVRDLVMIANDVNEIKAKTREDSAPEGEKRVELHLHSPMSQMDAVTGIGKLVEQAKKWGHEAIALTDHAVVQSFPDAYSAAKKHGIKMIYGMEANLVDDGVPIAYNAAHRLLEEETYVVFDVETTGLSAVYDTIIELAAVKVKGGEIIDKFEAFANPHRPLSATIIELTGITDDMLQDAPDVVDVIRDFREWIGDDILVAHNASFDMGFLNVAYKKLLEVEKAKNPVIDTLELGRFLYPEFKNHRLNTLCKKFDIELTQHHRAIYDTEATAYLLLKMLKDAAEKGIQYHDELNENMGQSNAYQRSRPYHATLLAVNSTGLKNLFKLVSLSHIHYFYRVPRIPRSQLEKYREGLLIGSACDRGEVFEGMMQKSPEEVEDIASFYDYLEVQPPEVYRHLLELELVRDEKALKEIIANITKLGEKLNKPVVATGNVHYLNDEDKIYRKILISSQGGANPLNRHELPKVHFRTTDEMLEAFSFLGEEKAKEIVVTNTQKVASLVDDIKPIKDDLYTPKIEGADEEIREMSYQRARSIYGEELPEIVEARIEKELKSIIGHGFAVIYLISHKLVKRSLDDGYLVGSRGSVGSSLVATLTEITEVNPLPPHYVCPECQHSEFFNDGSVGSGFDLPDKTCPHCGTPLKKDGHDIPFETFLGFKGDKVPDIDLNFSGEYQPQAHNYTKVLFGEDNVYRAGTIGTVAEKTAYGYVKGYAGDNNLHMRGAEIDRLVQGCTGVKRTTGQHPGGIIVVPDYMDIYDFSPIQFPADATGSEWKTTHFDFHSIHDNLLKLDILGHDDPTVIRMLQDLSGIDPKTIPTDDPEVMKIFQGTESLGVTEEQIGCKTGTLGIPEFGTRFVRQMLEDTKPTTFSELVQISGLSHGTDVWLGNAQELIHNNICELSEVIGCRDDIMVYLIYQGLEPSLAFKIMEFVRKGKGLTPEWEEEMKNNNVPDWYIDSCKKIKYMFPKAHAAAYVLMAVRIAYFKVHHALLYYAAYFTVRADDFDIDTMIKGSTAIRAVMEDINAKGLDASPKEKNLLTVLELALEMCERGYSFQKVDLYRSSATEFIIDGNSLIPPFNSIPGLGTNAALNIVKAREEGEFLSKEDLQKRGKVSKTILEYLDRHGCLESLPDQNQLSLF
Procedure: Recombinant, purified pol IIIC and pol IIIE from Bacillus subtilis were obtained using known methods (Hammond et al., Gene 98: 29-36 (1991), regarding pol IIIC; Barnes et al., J. Bacteriol. 184, 3834-3838 (2002), regarding pol IIIE). Recombinant, purified pol IIIE from Escherichia coli was obtained from a commercial source (Enzyco, Denver, Colo.). The enzyme assays were performed in 96-well plate format using the same assay mix for all three enzymes. […] Dilutions of compounds were added to the plate in 1% DMSO (1 μL/well). Assays were initiated by the addition of 0.025 to 0.06 units of enzyme (1 unit is the amount required to incorporate 250 pmoles of [^3H] dTMP in a standard assay), incubated for 10 min at 30° C. and terminated by the addition of 200 μL of cold 10% trichloroacetic acid, 10 mM sodium pyrophosphate. Precipitated labeled DNA was collected on glass fiber filter plates that had been pre-wet with ice cold 1 M HCl, 100 mM sodium pyrophosphate. The plates were washed with the HCl solution followed by ice cold 90% ethanol and then dried and counted in a liquid scintillation counter. […] In addition, percent inhibition values are calculated as the percent reduction in the activity of a DMSO (diluent) control.

[2] = target: T2, B. subtilis pol IIIE (Bacillus subtilis, UniProt O34623); assay: DNA polymerase assay, B. subtilis pol IIIE; type: biochemical; conditions: for inhibition at 80 µg/mL: read-out: Percent Enzymatic Inhibition B. subtilis pol IIIE; for IC50: B. subtilis Pol IIIE IC50, 4 dNTPs, in the presence of all four dNTP substrates
T2 construct: made in house
T2 sequence (O34623 whole entry): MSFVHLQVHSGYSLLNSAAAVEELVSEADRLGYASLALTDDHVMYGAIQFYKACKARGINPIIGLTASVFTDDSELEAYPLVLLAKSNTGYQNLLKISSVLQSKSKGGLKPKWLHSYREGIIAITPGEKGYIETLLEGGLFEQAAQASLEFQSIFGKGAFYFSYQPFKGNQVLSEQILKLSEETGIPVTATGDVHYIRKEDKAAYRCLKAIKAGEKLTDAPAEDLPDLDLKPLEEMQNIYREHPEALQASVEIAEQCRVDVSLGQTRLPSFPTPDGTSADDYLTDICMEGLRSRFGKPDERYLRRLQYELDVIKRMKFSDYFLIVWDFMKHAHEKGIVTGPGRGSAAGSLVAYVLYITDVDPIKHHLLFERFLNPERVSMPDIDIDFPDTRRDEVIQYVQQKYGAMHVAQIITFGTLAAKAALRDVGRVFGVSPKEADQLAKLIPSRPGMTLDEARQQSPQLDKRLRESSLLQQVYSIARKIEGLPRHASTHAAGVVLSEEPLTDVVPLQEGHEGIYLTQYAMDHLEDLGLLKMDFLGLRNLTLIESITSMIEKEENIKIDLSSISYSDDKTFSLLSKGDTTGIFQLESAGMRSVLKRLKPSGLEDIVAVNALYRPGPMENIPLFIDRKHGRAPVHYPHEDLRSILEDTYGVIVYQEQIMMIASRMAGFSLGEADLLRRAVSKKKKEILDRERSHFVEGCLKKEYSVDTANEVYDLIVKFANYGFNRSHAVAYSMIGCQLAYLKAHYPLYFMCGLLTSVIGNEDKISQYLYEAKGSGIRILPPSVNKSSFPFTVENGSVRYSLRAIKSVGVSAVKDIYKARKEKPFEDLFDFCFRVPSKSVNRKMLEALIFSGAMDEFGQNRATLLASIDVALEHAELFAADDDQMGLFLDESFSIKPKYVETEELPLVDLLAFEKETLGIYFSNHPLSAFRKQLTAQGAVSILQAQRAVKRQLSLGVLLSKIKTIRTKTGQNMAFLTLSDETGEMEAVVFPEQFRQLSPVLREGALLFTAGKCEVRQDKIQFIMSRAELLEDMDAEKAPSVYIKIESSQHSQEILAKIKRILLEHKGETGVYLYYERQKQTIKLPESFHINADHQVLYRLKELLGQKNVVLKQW
Procedure: (§1) Recombinant, purified pol IIIC and pol IIIE from Bacillus subtilis were obtained using known methods (Hammond et al., Gene 98: 29-36 (1991), regarding pol IIIC; Barnes et al., J. Bacteriol. 184, 3834-3838 (2002), regarding pol IIIE). Recombinant, purified pol IIIE from Escherichia coli was obtained from a commercial source (Enzyco, Denver, Colo.). The enzyme assays were performed in 96-well plate format using the same assay mix for all three enzymes. Each 25 μL assay contained 30 mM Tris, pH 7.5, 10 mM magnesium acetate, 4 mM dithiothreitol, 20% glycerol, with 10 μM dATP, dCTP, dGTP and dTTP (3H-labelled at 1.44 Ci/mmole) and 0.4 mg/mL activated calf thymus DNA as substrates. Dilutions of compounds were added to the plate in 1% DMSO (1 μL/well). Assays were initiated by the addition of 0.025 to 0.06 units of enzyme (1 unit is the amount required to incorporate 250 pmoles of [^3H] dTMP in a standard assay), incubated for 10 min at 30° C. and terminated by the addition of 200 μL of cold 10% trichloroacetic acid, 10 mM sodium pyrophosphate. Precipitated labeled DNA was collected on glass fiber filter plates that had been pre-wet with ice cold 1 M HCl, 100 mM sodium pyrophosphate. The plates were washed with the HCl solution followed by ice cold 90% ethanol and then dried and counted in a liquid scintillation counter. The calculated IC50 is the concentration needed to inhibit 50% of the DNA polymerase activity in the presence of all four dNTP substrates. In addition, percent inhibition values are calculated as the percent reduction in the activity of a DMSO (diluent) control.

[3] = system: Bacillus subtilis strain BD54; assay: Inhibition of bacterial growth (MIC), Bs; type: cell-based; conditions: 16 to 18 hours, 37° C.; for MIC: read-out: Minimum Inhibitory Concentration for Bacterial Growth, Bs
Procedure: (§2) Each compound was assayed against a panel of a strain of Bacillus subtilis, of strains of antibiotic-resistant and sensitive Enterococcus and Staphylococcus species, and of a strain of the Gram-negative bacterium Escherichia coli. Compounds were dissolved in DMSO at 100× the desired highest concentration and added to one well of a 96-well microassay plate. Two-fold serial drug dilutions were made across the plate in DMSO to yield 11 concentrations (usually 80-0.078 μg/mL) plus an untreated control. Drugs were then transferred to fresh plates using 1.5 μL per well. Log phase cultures were diluted to yield a concentration of 1×10^5 colony forming units/mL in either LB or BHI medium and transferred to the plates containing drug for a final volume of 150 μL. Each well, including the DMSO controls, contained a final concentration of 1% DMSO. Plates were incubated with shaking at 37° C. for 16 to 18 hours. Cell growth was determined by measuring optical density (570 nm, 1 cm path length) in a microplate reader. MIC (minimum inhibitory concentration) is equivalent to the lowest concentration at which growth is not observed. The bacterial strains and MIC determinations have been well characterized and are described elsewhere (Tarantino et al., Antimicrob. Agents Chemother., 43: 1982-1987 (1999); Daly et al., Antimicrob. Agents Chemother., 44: 2217-2221 (2000)).

[4] = system: Staphylococcus aureus strain IP 8; assay: Inhibition of bacterial growth (MIC), Sa; type: cell-based; conditions: 37° C.; for MIC: IP8, 16 to 18 hours, read-out: Minimum Inhibitory Concentration for Bacterial Growth, Sa
Procedure: as §2

[5] = system: S. aureus Smith strain; assay: Inhibition of bacterial growth (MIC), Sm; type: cell-based, Staphylococcus aureus; conditions: 16 to 18 hours, 37° C.; for MIC: Staphylococcus aureus, read-out: Minimum Inhibitory Concentration for Bacterial Growth, Sm
Procedure: as §2

[6] = system: methicillin-resistant S. aureus strain 1094; assay: Inhibition of bacterial growth (MIC), MRSA; type: cell-based, Staphylococcus aureus; conditions: 16 to 18 hours, 37° C.; for MIC: Staphylococcus aureus, MRSA, read-out: Minimum Inhibitory Concentration for Bacterial Growth, MRSA
Procedure: as §2

[7] = system: Enterococcus faecalis strain 29212; assay: Inhibition of bacterial growth (MIC), Efcl; type: cell-based; conditions: 16 to 18 hours, 37° C.; for MIC: read-out: Minimum Inhibitory Concentration for Bacterial Growth, Efcl
Procedure: as §2

[8] = system: E. faecium clinical isolate; assay: Inhibition of bacterial growth (MIC), Efcm; type: cell-based; conditions: 16 to 18 hours, 37° C.; for MIC: Enterococcus faecium, read-out: Minimum Inhibitory Concentration for Bacterial Growth, Efcm
Procedure: as §2

[9] = system: vancomycin-resistant Enterococcus strain B42762; assay: Inhibition of bacterial growth (MIC), VRE; type: cell-based; conditions: 16 to 18 hours, 37° C.; for MIC: VRE, read-out: Minimum Inhibitory Concentration for Bacterial Growth, VRE
Procedure: as §2

[10] = system: Escherichia coli strain J53; assay: Inhibition of bacterial growth (MIC), Ec; type: cell-based; conditions: 16 to 18 hours, 37° C.; for MIC: read-out: Minimum Inhibitory Concentration for Bacterial Growth, Ec
Procedure: as §2

[11] = system: test strains of bacteria; assay: Inhibition of bacterial growth, whole panel of test strains; type: cell-based
Procedure: as §2

[12] = target: T2, B. subtilis pol IIIE; assay: DNA polymerase assay, B. subtilis pol IIIE; type: biochemical
[13] = target: T3, E. coli pol IIIE (Escherichia coli, UniProt P10443); assay: DNA polymerase assay, E. coli pol IIIE; type: biochemical; conditions: 80 μg/mL (190-260 μM) final concentration, all four dNTPs
T3 construct: purchased Enzyco, Denver, Colo
T3 sequence (P10443 whole entry): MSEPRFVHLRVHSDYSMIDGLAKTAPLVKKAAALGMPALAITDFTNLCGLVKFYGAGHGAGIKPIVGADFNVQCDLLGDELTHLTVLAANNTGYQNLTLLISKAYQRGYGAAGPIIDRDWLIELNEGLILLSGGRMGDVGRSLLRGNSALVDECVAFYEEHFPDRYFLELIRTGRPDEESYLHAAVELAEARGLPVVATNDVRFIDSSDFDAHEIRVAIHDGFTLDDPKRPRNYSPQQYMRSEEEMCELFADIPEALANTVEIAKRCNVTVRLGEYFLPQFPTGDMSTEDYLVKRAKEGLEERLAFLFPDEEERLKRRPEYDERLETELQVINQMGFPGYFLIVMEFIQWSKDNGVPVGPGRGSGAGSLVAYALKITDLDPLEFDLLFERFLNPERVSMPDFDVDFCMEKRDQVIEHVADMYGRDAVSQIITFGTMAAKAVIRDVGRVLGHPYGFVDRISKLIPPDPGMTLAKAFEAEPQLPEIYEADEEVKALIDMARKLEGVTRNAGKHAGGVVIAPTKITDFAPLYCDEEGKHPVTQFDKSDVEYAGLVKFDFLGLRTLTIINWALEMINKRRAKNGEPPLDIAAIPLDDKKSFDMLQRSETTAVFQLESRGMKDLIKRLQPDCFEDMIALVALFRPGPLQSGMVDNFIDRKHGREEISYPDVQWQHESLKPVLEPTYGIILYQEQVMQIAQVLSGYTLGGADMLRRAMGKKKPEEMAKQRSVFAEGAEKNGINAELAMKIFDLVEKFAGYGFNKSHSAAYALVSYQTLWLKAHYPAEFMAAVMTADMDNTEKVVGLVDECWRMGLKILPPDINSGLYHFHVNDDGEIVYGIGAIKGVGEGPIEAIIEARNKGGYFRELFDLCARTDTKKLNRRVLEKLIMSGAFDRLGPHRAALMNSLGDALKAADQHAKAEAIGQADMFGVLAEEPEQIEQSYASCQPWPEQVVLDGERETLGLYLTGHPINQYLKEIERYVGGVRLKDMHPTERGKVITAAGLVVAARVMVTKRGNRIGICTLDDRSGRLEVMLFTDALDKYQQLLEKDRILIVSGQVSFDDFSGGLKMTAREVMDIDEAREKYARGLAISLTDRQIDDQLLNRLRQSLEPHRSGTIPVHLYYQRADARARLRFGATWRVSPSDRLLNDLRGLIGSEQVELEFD
Procedure: as §1

[14] = 80 μg/mL (190-260 μM) final concentration, all four dNTPs
[15] = B. subtilis Pol IIIC IC50, 4 dNTPs, in the presence of all four dNTP substrates
[16] = B. subtilis Pol IIIC IC50, −dATP, in the absence of dATP
[17] = B. subtilis Pol IIIC IC50, −dCTP, in the absence of dCTP
[18] = B. subtilis Pol IIIC IC50, −dGTP, in the absence of dGTP
[19] = B. subtilis Pol IIIE IC50, −dATP, in the absence of dATP
[20] = B. subtilis Pol IIIE IC50, −dCTP, in the absence of dCTP
[21] = B. subtilis Pol IIIE IC50, −dGTP, in the absence of dGTP
[22] = in the presence of all four dNTP substrates

Structure (SMILES)	inhibition at 80 µg/mL [1, 14]	IC50 [1, 15]	IC50 [1, 16]	IC50 [1, 17]	IC50 [1, 18]	inhibition at 80 µg/mL [2, 14]	IC50 [2]	MIC [3]	MIC [4]	MIC [5]	MIC [6]	MIC [7]	MIC [8]	MIC [9]	MIC [10]	Inhibition of bacterial growth, result in words (rank of MIC values) [11]	IC50 [12, 19]	IC50 [12, 20]	IC50 [12, 21]	Percent Enzymatic Inhibition E. coli pol IIIE [13]	further results
COc1ccc(-c2cc(C(=O)NN=Cc3ccc(OC)c(OC)c3)[nH]n2)cc1 [Compound 18]	> 20%	912 µM	23 µM	6.5 µM	5.5 µM	> 20%	278 µM	2.5 µg/mL (≈ 6.57 µM)	5 µg/mL (≈ 13.1 µM)	5 µg/mL (≈ 13.1 µM)	10 µg/mL (≈ 26.3 µM)	40 µg/mL (≈ 105 µM)	20 µg/mL (≈ 52.6 µM)	20 µg/mL (≈ 52.6 µM)	> 80 µg/mL	third place	345 µM	> 1000 µM	> 1000 µM	–	–
CCOc1ccc(-c2cc(C(=O)NN=Cc3ccc(O)c(OC)c3)[nH]n2)cc1 [Compound 19]	> 20%	23 µM	9 µM	3.3 µM	5.1 µM	10.1%	> 841 µM	2.5 µg/mL (≈ 6.57 µM)	80 µg/mL (≈ 210 µM)	> 80 µg/mL	5 µg/mL (≈ 13.1 µM)	> 80 µg/mL	> 80 µg/mL	10 µg/mL (≈ 26.3 µM)	> 80 µg/mL	–	> 841 µM	> 841 µM	> 841 µM	Inactive	–
CCOc1cccc(-c2cc(C(=O)NN=Cc3cccc(OC)c3O)[nH]n2)c1 [Compound 7]	–	–	–	–	–	–	–	–	–	–	–	–	–	–	–	able to inhibit growth	–	–	–	not sufficient to show a significant inhibition; also recorded: Inactive	Percent Enzymatic Inhibition B. subtilis pol IIIC [1, 14]: not sufficient to show a significant inhibition; also recorded: Inactive; Percent Enzymatic Inhibition B. subtilis pol IIIE [2, 14]: not sufficient to show a significant inhibition; also recorded: Inactive; Minimum Inhibitory Concentration for Bacterial Growth, Bs [3]: 80 µg/mL; Minimum Inhibitory Concentration for Bacterial Growth, Sa ([4]; 16 to 18 hours): 30 µg/mL; Minimum Inhibitory Concentration for Bacterial Growth, Sm [5]: 40 µg/mL; Minimum Inhibitory Concentration for Bacterial Growth, MRSA [6]: 30 µg/mL; Minimum Inhibitory Concentration for Bacterial Growth, Efcl [7]: >80 µg/mL; Minimum Inhibitory Concentration for Bacterial Growth, Efcm [8]: >80 µg/mL; Minimum Inhibitory Concentration for Bacterial Growth, VRE [9]: >80 µg/mL; Minimum Inhibitory Concentration for Bacterial Growth, Ec [10]: >80 µg/mL
O=C(NN=Cc1ccc(O)cc1O)c1cc(-c2ccccc2)n[nH]1 [Compound 4]	15.8%	–	81 µM	228 µM	98 µM	> 20%	699 µM	40 µg/mL (≈ 124 µM)	30 µg/mL (≈ 93.1 µM)	60 µg/mL (≈ 186 µM)	40 µg/mL (≈ 124 µM)	> 80 µg/mL	30 µg/mL (≈ 93.1 µM)	> 80 µg/mL	> 80 µg/mL	–	278 µM	347 µM	183 µM	Inactive	B. subtilis Pol IIIC IC50, 4 dNTPs [1, 22]: Inactive
COc1cc(C=NNC(=O)c2cc(-c3ccccc3)n[nH]2)ccc1O [Compound 5]	4.8%	–	41 µM	265 µM	89 µM	> 20%	205 µM	60 µg/mL (≈ 178 µM)	20 µg/mL (≈ 59.5 µM)	40 µg/mL (≈ 119 µM)	40 µg/mL (≈ 119 µM)	40 µg/mL (≈ 119 µM)	80 µg/mL (≈ 238 µM)	40 µg/mL (≈ 119 µM)	> 80 µg/mL	–	213 µM	383 µM	111 µM	–	B. subtilis Pol IIIC IC50, 4 dNTPs [1, 22]: Inactive; inhibition at 80 µg/mL ([13]; read-out: Percent Enzymatic Inhibition E. coli pol IIIE): 2%
